PMC8316980 (ACS chemical neuroscience, 2019)

Biological target: T1, MD-2 (myeloid differentiation protein 2) (Homo sapiens, UniProt Q9Y6Y9)
T1 sequence (Q9Y6Y9 19-160): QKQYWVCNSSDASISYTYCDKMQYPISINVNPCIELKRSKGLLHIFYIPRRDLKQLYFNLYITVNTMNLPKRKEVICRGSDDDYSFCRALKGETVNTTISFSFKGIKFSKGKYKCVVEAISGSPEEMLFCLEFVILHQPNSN
Assay: intrinsic fluorescence quenching titration
Type: binding

CN[C@@H](C)Cc1ccccc1 [methamphetamine]
Kd: 6.7 ± 0.6 µM
